For assay [1], the system named is CT26.CL25 colon cancer tumor endothelial cells. Briefly: Colon CT26 ex vivo model of tumor angiogenesis. Type of assay: cell-based, mouse. The following applies: for cytotoxicity at 40 µM / cytotoxicity at 10 µM: Mus musculus, Endothelial cell, 48 h, read-out: Cell death. The method in brief:
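Cell death was read by FDA (live, green) and PI (dead, red) fluorescence imaging, e.g. 48 h after treatment. Treatment began once endothelial cells had grown out of Matrigel-embedded CT26 colon tumor fragments, typically after 7 days of culture in endothelial growth medium at 37 °C.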

In assay [2] the test system is LL/2 lung cancer tumor endothelial cells. As to the kind of experiment: Lung LL2 ex vivo model of tumor angiogenesis. It counts as cell-based, mouse. To be noted: for 48 hrs (morphology observations): LL/2 tumor endothelial cells; for Cell death: drug treatment for two days, ratio of red area to total endothelial cell area; for cytotoxicity at 40 µM / cytotoxicity at 20 µM: Mus musculus, Endothelial cell, 48 h, read-out: Cell death. The method in brief:
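Live/dead imaging with FDA and PI, taken e.g. 48 h post-drug under fixed channel settings, measures treatment effects on endothelial cells sprouting from Lewis lung tumor explants. Explants were seeded in Matrigel drops and grown ~4 days in endothelial growth medium, 37 °C, 5% CO2, before dosing.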

SMILES strings stand for the structures.

As to `CCN(CC)c1c(S(=O)(=O)c2ccc(OC)c(OC)c2)cnc2ccc(OC(F)(F)F)cc12` [Compound 68], the “48 hrs (morphology observations after 48 hours)” value in assay [1] (Conc. 40 μm) was “** (more than 50% but less than 100% of endothelial cells vesicularize in cell shape)”. In addition, the cytotoxicity at 40 µM in assay [1] was 50%. Further, in assay [2] (40 μm), the “48 hrs (morphology observations)” value is recorded as “*** (more than 50% but less than 100% of endothelial cells vesicularize in cell shape)” and the Cell death is reported as 80%.
As for `COc1ccc(S(=O)(=O)c2cnc3ccc(OC(F)(F)F)cc3c2NCCO)cc1OC` [Compound 69], the “48 hrs (morphology observations after 48 hours)” value in assay [1] (Conc. 40 μm) is given as 0. Besides, the cytotoxicity at 40 µM is 0% in assay [1] and 20% in assay [2]. In addition, the “48 hrs (morphology observations)” value in assay [2] (40 μm) was 0.
On to `COc1ccc(S(=O)(=O)c2cnc3ccc(OC(F)(F)F)cc3c2N2CCCC(O)C2)cc1OC` (stereo not drawn) [Compound 70], for which, in assay [1] (Conc. 40 μm), the “48 hrs (morphology observations after 48 hours)” value stood at 0. Besides, the cytotoxicity at 40 µM in assay [1] is 10%. In assay [2] (40 μm), the “48 hrs (morphology observations)” value is reported as “*** (more than 50% but less than 100% of endothelial cells vesicularize in cell shape)” and the Cell death is 40%.
As to `CCCN(CCC)c1c(S(=O)(=O)c2ccc(OC)c(OC)c2)cnc2ccc(OC(F)(F)F)cc12` [Compound 71], in assay [1] (Conc. 40 μm), the “48 hrs (morphology observations after 48 hours)” value came out at 0. Besides, the cytotoxicity at 40 µM in assay [1] is 0%. Also, in assay [2] (40 μm), the “48 hrs (morphology observations)” value is on record as “* (50% or less of cells vesicularize in cell shape)” and the Cell death is listed as 10%.
With `COc1ccc(S(=O)(=O)c2cnc3ccc(OC(F)(F)F)cc3c2N(CCO)CCO)cc1OC` [Compound 72], the “48 hrs (morphology observations after 48 hours)” value in assay [1] (Conc. 40 μm) was determined as 0. Moreover, in assay [1], the cytotoxicity at 40 µM worked out at 0%. Also, the Cell death in assay [2] (40 μm) was determined as 20%.
For `CCCCN(CCCC)c1c(S(=O)(=O)c2ccc(OC)c(OC)c2)cnc2ccc(OC(F)(F)F)cc12` [Compound 74], the “48 hrs (morphology observations after 48 hours)” value in assay [1] (Conc. 40 μm) is “*** (100% of endothelial cells vesicularize in cell shape)”. The cytotoxicity at 40 µM in assay [1] turned out to be 100%. Also, in assay [2] (40 μm), the “48 hrs (morphology observations)” value is listed as “*** (more than 50% but less than 100% of endothelial cells vesicularize in cell shape)” and the Cell death is 60%.
For `CCc1ccc(S(=O)(=O)c2cnc3ccc([N+](=O)[O-])cc3c2N2CCC(O)CC2)cc1` [Compound 75], the “48 hrs (morphology observations after 48 hours)” value in assay [1] (Conc. 40 μm) is on record as 0. Further, the cytotoxicity at 40 µM in assay [1] came out at 0%. In addition, the Cell death in assay [2] (40 μm) was 80%.
In the case of `CCc1ccc(S(=O)(=O)c2cnc3ccc([N+](=O)[O-])cc3c2N2CCCN(C)CC2)cc1` [Compound 76], the “48 hrs (morphology observations after 48 hours)” value in assay [1] (Conc. 40 μm) was “** (more than 50% but less than 100% of endothelial cells vesicularize in cell shape)”. The cytotoxicity at 40 µM in assay [1] came out at 100%. Moreover, in assay [2] (40 μm), the “48 hrs (morphology observations)” value is reported as 0 and the Cell death amounted to 20%.
For `CCc1ccc(S(=O)(=O)c2cnc3ccc([N+](=O)[O-])cc3c2N2CCC(N3CCCCC3)CC2)cc1` [Compound 77], the “48 hrs (morphology observations after 48 hours)” value in assay [1] (Conc. 40 μm) is 0. For the same compound, the cytotoxicity at 40 µM in assay [1] is 40%. Besides, the Cell death in assay [2] (40 μm) was determined as 80%.
In the case of `CCc1ccc(S(=O)(=O)c2cnc3ccc([N+](=O)[O-])cc3c2N(CC)CC)cc1` [Compound 78], the “48 hrs (morphology observations after 48 hours)” value in assay [1] (Conc. 40 μm) is listed as 0. In assay [1], the cytotoxicity at 40 µM turned out to be 0%. In addition, the Cell death in assay [2] (40 μm) was 40%.
`CCc1ccc(S(=O)(=O)c2cnc3ccc(OC)cc3c2-n2cncn2)cc1` [Compound 79]: in assay [1] (Conc. 10 μm), the “48 hrs (morphology observations after 48 hours)” value is listed as “*** (100% of endothelial cells vesicularize in cell shape)”. Besides, in assay [1], the cytotoxicity at 10 µM stood at 100%. In addition, the Cell death in assay [2] (20 μm) was found to be 20%.
As for `CCOC(=O)c1ccc2ncc(S(=O)(=O)c3ccc(CC)cc3)c(-n3cncn3)c2c1` [Compound 80], the “48 hrs (morphology observations after 48 hours)” value in assay [1] (Conc. 10 μm) is listed as “*** (100% of endothelial cells vesicularize in cell shape)”. The cytotoxicity at 10 µM in assay [1] came out at 100%. Moreover, in assay [2] (20 μm), the “48 hrs (morphology observations)” value is “*** (more than 50% but less than 100% of endothelial cells vesicularize in cell shape)”. Also, the cytotoxicity at 20 µM in assay [2] worked out at 100%.
Regarding `CCc1ccc(S(=O)(=O)c2cnc3ccc(OC(F)(F)F)cc3c2N(CC)CC)cc1` [Compound 81], the “48 hrs (morphology observations after 48 hours)” value in assay [1] (Conc. 40 μm) is recorded as 0. Besides, the cytotoxicity at 40 µM in assay [1] and in assay [2] was 0% in each case.
With `CCc1ccc(S(=O)(=O)c2cnc3ccc(OC(F)(F)F)cc3c2N2CCCC(O)C2)cc1` (stereo not drawn) [Compound 82], the “48 hrs (morphology observations after 48 hours)” value in assay [1] (Conc. 40 μm) is recorded as 0. In assay [1], the cytotoxicity at 40 µM is 10%. The Cell death in assay [2] (40 μm) is recorded as 60%.
For the compound `CCOC(=O)c1ccc2ncc(S(=O)(=O)c3ccc(CC)cc3)c(NN3CCN(C)CC3)c2c1` [Compound 84], in assay [1] (Conc. 40 μm), the “48 hrs (morphology observations after 48 hours)” value is “* (50% or less of cells vesicularize in cell shape)”. Besides, the cytotoxicity at 40 µM in assay [1] and in assay [2] was 100% each time.
As to `COc1ccc(S(=O)(=O)c2cnc3ccc(OC(F)(F)F)cc3c2NN2CCN(C)CC2)cc1` [Compound 85], in assay [1] (Conc. 40 μm), the “48 hrs (morphology observations after 48 hours)” value is 0. Moreover, in assay [1], the cytotoxicity at 40 µM is 50%. Also, the Cell death in assay [2] (40 μm) was found to be 80%.
On to `COc1ccc(S(=O)(=O)c2cnc3ccc(OC(F)(F)F)cc3c2-n2cncn2)cc1` [Compound 86], for which the “48 hrs (morphology observations after 48 hours)” value in assay [1] (Conc. 10 μm) is “*** (100% of endothelial cells vesicularize in cell shape)”. The cytotoxicity at 10 µM in assay [1] came to 100%. In assay [2] (20 μm), the “48 hrs (morphology observations)” value is given as “*** (more than 50% but less than 100% of endothelial cells vesicularize in cell shape)”. The cytotoxicity at 20 µM in assay [2] came out at 100%.
`CCCCN(CCCC)c1c(S(=O)(=O)c2ccc(CC)cc2)cnc2ccc(OC(F)(F)F)cc12` [Compound 87]: the “48 hrs (morphology observations after 48 hours)” value in assay [1] (Conc. 40 μm) stood at 0. Moreover, the cytotoxicity at 40 µM in assay [1] and in assay [2] was 0% in each case.
In the case of `COc1ccc(S(=O)(=O)c2cnc3ccc(OC(F)(F)F)cc3c2NN2CCN(C)CC2)cc1OC` [Compound 88], the “48 hrs (morphology observations after 48 hours)” value in assay [1] (Conc. 40 μm) is recorded as “*** (100% of endothelial cells vesicularize in cell shape)”. Besides, the cytotoxicity at 40 µM in assay [1] amounted to 60%. Further, in assay [2] (40 μm), the “48 hrs (morphology observations)” value came out at 0 and the Cell death was 70%.
For the compound `COc1ccc(S(=O)(=O)c2cnc3ccc(OC(F)(F)F)cc3c2-n2cncn2)cc1OC` [Compound 89], the “48 hrs (morphology observations after 48 hours)” value in assay [1] (Conc. 10 μm) is recorded as “*** (100% of endothelial cells vesicularize in cell shape)”. In addition, the cytotoxicity at 10 µM in assay [1] came out at 100%. In addition, in assay [2] (20 μm), the “48 hrs (morphology observations)” value is recorded as “*** (more than 50% but less than 100% of endothelial cells vesicularize in cell shape)”. The cytotoxicity at 20 µM in assay [2] came out at 100%.
Regarding `CN1CCN(Nc2c(S(=O)(=O)c3ccc(OC(F)(F)F)cc3)cnc3ccc(OC(F)(F)F)cc23)CC1` [Compound 90], in assay [1] (Conc. 40 μm), the “48 hrs (morphology observations after 48 hours)” value is 0. In addition, the figures for the cytotoxicity at 40 µM in assay [1] and in assay [2] were 0% and 10%, respectively. In addition, the “48 hrs (morphology observations)” value in assay [2] (40 μm) turned out to be 0.
As for `O=S(=O)(c1ccc(OC(F)(F)F)cc1)c1cnc2ccc(OC(F)(F)F)cc2c1-n1cncn1` [Compound 91], the “48 hrs (morphology observations after 48 hours)” value in assay [1] (Conc. 10 μm) is reported as “*** (100% of endothelial cells vesicularize in cell shape)”. Besides, the cytotoxicity at 10 µM in assay [1] was 100%. Further, in assay [2] (20 μm), the “48 hrs (morphology observations)” value is on record as “*** (more than 50% but less than 100% of endothelial cells vesicularize in cell shape)”. In addition, the cytotoxicity at 20 µM in assay [2] worked out at 80%.

For the origin of these results see patent US20250230226A1, “PLXDC1/PLXDC2 ACTIVATORS AND THEIR USE IN THE TREATMENT OF BLOOD VESSEL DISORDERS” (THE REGENTS OF THE UNIVERSITY OF CALIFORNIA, priority 2019, published 2025).
